From patent US20240218022A1, “ANTI-VISTA MACROCYCLIC PEPTIDES AND COMPOSITIONS” (BRISTOL-MYERS SQUIBB COMPANY, priority 2022, published 2024)
Like-named read-outs stand apart in the source and are kept apart here. Starred links: 1 amine or outer side, 2 acyl side, 3 side chain; linkers in the order of their positions; H or OH if unused. Positions of bridges follow the written chain, without caps; N, C: chain ends. Non-standard residues stand in square brackets, D forms with d. Residues, ends and D or L forms follow the SMILES beside them. ξ: configuration not given here. Phe(3-Me) = Cc1cccc(C[C@H](N)C(=O)O)c1; γGlu = O=C(O)[C@H](CCC(=O)[*:2])N[*:1]; 2Nal = N[C@@H](Cc1ccc2ccccc2c1)C(=O)O; βAsp = O=C(O)[C@H](CC(=O)[*:2])N[*:1]; Ahp(2) = CCCCC[C@H](N)C(=O)O; NMeNle = CCCC[C@H](NC)C(=O)O; Tle = CC(C)(C)[C@H](N)C(=O)O; NHexGly = CCCCCCNCC(=O)O; Nle = CCCC[C@H](N)C(=O)O; Orn = NCCC[C@H](N)C(=O)O; Aun = NCCCCCCCCCCC(=O)O; AEEA = NCCOCCOCC(=O)O; ξP = O=C(O)C1CCCN1

Target: T1, mouse VISTA (mVISTA) (Mus musculus, UniProt Q9D659)
T1 construct: expressed in transfected cells; host or cells: Human embryonic kidney 293T cells
T1 sequence (Q9D659 33-308): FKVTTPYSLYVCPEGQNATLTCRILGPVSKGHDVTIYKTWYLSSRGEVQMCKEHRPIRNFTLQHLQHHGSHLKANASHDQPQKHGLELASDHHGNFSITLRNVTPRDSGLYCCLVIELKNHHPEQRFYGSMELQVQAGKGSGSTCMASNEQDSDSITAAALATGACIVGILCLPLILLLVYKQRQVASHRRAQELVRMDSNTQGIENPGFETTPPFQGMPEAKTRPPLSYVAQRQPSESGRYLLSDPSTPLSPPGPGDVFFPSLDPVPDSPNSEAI
Assay: Cell-Based Binding High-Content Assay For mVISTA (HC CBA mVISTA)
Procedure, shortened: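 This high-content binding assay uses HEK293T cells expressing murine VISTA, measuring displacement of 2 nM biotinylated peptide by fluorescent streptavidin imaging. IC50 values come from four-parameter logistic fitting.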

[1] = cell-based binding high-content assay, mVISTA, read-out: HC CBA miPrISTA IC50

| SMILES | IC50 [1] [nM] | IC50 (read-out: HC CBA mVISTA IC50) [nM] |
| --- | --- | --- |
| CCCCCCN1CC(=O)N[C@@H](Cc2ccc(O)cc2)C(=O)N[C@@H](C)C(=O)N[C@@H](CC(N)=O)C(=O)N[C@@H](CCCN)C(=O)N(C)[C@@H](CCCC)C(=O)N[C@@H](CCCCC)C(=O)N2CCC[C@H]2C(=O)N[C@@H](C(C)(C)C)C(=O)N[C@@H](CC(=O)O)C(=O)N[C@H](C(=O)N[C@@H](CC(=O)NCCOCCOCC(=O)N[C@@H](CC(=O)O)C(=O)NCCOCCOCC(=O)NCCCCCCCCCCC(=O)O)C(=O)O)CSCC(=O)N[C@@H](Cc2ccccc2)C(=O)N[C@@H](Cc2ccc(O)cc2)C(=O)N[C@@H](CC(=O)O)C1=O [compound 2095] ({CH2CO}-FYD[NHexGly]YAN[Orn][NMeNle][Ahp(2)]P[Tle]DC[βAsp][AEEA]D[AEEA][Aun]-OH; thioether N-14) | 50.1 |  |
| CCCCCCN1CC(=O)N[C@@H](Cc2ccc(O)cc2)C(=O)N[C@@H](C)C(=O)N[C@@H](CC(N)=O)C(=O)N[C@@H](CCCNC(=N)N)C(=O)N(C)[C@@H](CCCC)C(=O)N[C@@H](CCCCC)C(=O)N2CCC[C@H]2C(=O)N[C@@H](C(C)(C)C)C(=O)N[C@@H](CC(=O)O)C(=O)N[C@H](C(=O)N[C@@H](CC(=O)NCCOCCOCC(=O)N[C@@H](CC(=O)O)C(=O)NCCOCCOCC(=O)NCCCCCCCCCCC(=O)O)C(=O)O)CSCC(=O)N[C@@H](Cc2ccccc2)C(=O)N[C@@H](Cc2ccc(O)cc2)C(=O)N[C@@H](CC(=O)O)C1=O [compound 2096] ({CH2CO}-FYD[NHexGly]YANR[NMeNle][Ahp(2)]P[Tle]DC[βAsp][AEEA]D[AEEA][Aun]-OH; thioether N-14) | 20 |  |
| CCCCCCN1CC(=O)N[C@@H](Cc2ccc(O)cc2)C(=O)N[C@@H](C)C(=O)N[C@@H](CC(N)=O)C(=O)N[C@@H](CCCN)C(=O)N(C)[C@@H](CCCC)C(=O)N[C@@H](CCCCC)C(=O)N2CCC[C@H]2C(=O)N[C@@H](C(C)(C)C)C(=O)N[C@@H](CC(=O)O)C(=O)N[C@H](C(=O)N[C@@H](CC(=O)NCCOCCOCC(=O)N[C@@H](CC(=O)O)C(=O)NCCOCCOCC(=O)NCCCCCCCCCCC(=O)O)C(=O)O)CSCC(=O)N[C@@H](Cc2ccccc2)C(=O)N[C@@H](Cc2c[nH]c3ccccc23)C(=O)N[C@@H](CC(=O)O)C1=O [compound 2097] ({CH2CO}-FWD[NHexGly]YAN[Orn][NMeNle][Ahp(2)]P[Tle]DC[βAsp][AEEA]D[AEEA][Aun]-OH; thioether N-14) | 22.2 |  |
| CCCCCCN1CC(=O)N[C@@H](Cc2ccc(O)cc2)C(=O)N[C@@H](C)C(=O)N[C@@H](CC(N)=O)C(=O)N[C@@H](CCCNC(=N)N)C(=O)N(C)[C@@H](CCCC)C(=O)N[C@@H](CCCCC)C(=O)N2CCC[C@H]2C(=O)N[C@@H](C(C)(C)C)C(=O)N[C@@H](CO)C(=O)N[C@H](C(=O)N[C@@H](CC(=O)NCCOCCOCC(=O)N[C@@H](CC(=O)O)C(=O)NCCOCCOCC(=O)NCCCCCCCCCCC(=O)O)C(=O)O)CSCC(=O)N[C@@H](Cc2ccccc2)C(=O)N[C@@H](Cc2c[nH]c3ccccc23)C(=O)N[C@@H](CC(=O)O)C1=O [compound 2098] ({CH2CO}-FWD[NHexGly]YANR[NMeNle][Ahp(2)]P[Tle]SC[βAsp][AEEA]D[AEEA][Aun]-OH; thioether N-14) | 36.6 |  |
| CCCCCCN1CC(=O)N[C@@H](Cc2ccc(O)cc2)C(=O)N[C@@H](CCCC)C(=O)N[C@@H](CC(=O)O)C(=O)N[C@@H](CCCNC(=N)N)C(=O)N[C@@H](CC(C)C)C(=O)N[C@@H](CCCCC)C(=O)N2CCCC2C(=O)N[C@@H](C(C)C)C(=O)N[C@@H](CC(N)=O)C(=O)N[C@H](C(=O)NCC(=O)N[C@@H](CC(=O)NCCOCCOCC(=O)N[C@@H](CC(=O)O)C(=O)NCCOCCOCC(=O)NCCCCCCCCCCC(=O)O)C(=O)O)CSCC(=O)N[C@@H](Cc2ccccc2)C(=O)N[C@@H](Cc2ccc(O)cc2)C(=O)N[C@@H](CC(=O)O)C1=O (stereo partly drawn) [compound 2108] ({CH2CO}-FYD[NHexGly]Y[Nle]DRL[Ahp(2)][ξP]VNCG[βAsp][AEEA]D[AEEA][Aun]-OH; thioether N-14) |  | 14.4 |
| CCCCCCN1CC(=O)N[C@@H](Cc2ccc(O)cc2)C(=O)N[C@@H](CCCC)C(=O)N[C@@H](CC(N)=O)C(=O)N[C@@H](CCCNC(=N)N)C(=O)N[C@@H](CC(C)C)C(=O)N[C@@H](CCCCC)C(=O)N2CCC[C@@H]2C(=O)N[C@@H](C(C)C)C(=O)N[C@@H](CO)C(=O)N[C@H](C(=O)NCC(=O)N[C@@H](CCC(=O)NCCOCCOCC(=O)N[C@@H](CC(=O)O)C(=O)NCCOCCOCC(=O)NCCCCCCCCCCC(=O)O)C(=O)O)CSCC(=O)N[C@@H](Cc2ccc3ccccc3c2)C(=O)N[C@@H](Cc2ccc(O)cc2)C(=O)N[C@@H](CC(=O)O)C1=O [compound 2123] ({CH2CO}-[2Nal]YD[NHexGly]Y[Nle]NRL[Ahp(2)][dP]VSCG[γGlu][AEEA]D[AEEA][Aun]-OH; thioether N-14) |  | 17.9 |
| CCCCCCN1CC(=O)N[C@@H](Cc2ccc(O)cc2)C(=O)N[C@@H](CCCC)C(=O)N[C@@H](CC(N)=O)C(=O)N[C@@H](CCCNC(=N)N)C(=O)N(C)[C@@H](CCCC)C(=O)N[C@@H](CCCCC)C(=O)N2CCCC2C(=O)N[C@@H](C(C)C)C(=O)N[C@@H](CC(=O)O)C(=O)N[C@H](C(=O)NCC(=O)N[C@@H](CCC(=O)NCCOCCOCC(=O)N[C@@H](CC(=O)O)C(=O)NCCOCCOCC(=O)NCCCCCCCCCCC(=O)O)C(=O)O)CSCC(=O)N[C@@H](Cc2ccc3ccccc3c2)C(=O)N[C@@H](Cc2c[nH]c3ccccc23)C(=O)N[C@@H](CC(=O)O)C1=O (stereo partly drawn) [compound 2125] ({CH2CO}-[2Nal]WD[NHexGly]Y[Nle]NR[NMeNle][Ahp(2)][ξP]VDCG[γGlu][AEEA]D[AEEA][Aun]-OH; thioether N-14) |  | 19.6 |
| CCCCCCN1CC(=O)N[C@@H](Cc2ccc(O)cc2)C(=O)N[C@@H](CCCC)C(=O)N[C@@H](CC(N)=O)C(=O)N[C@@H](CCCNC(=N)N)C(=O)N(C)[C@@H](CCCC)C(=O)N[C@@H](CCCCC)C(=O)N2CCC[C@H]2C(=O)N[C@@H](C(C)C)C(=O)N[C@@H](CC(=O)O)C(=O)N[C@H](C(=O)NCCOCCOCC(=O)N[C@@H](CCC(=O)NCCOCCOCC(=O)NCCCCCCCCCCC(=O)O)C(=O)O)CSCC(=O)N[C@@H](Cc2ccc3ccccc3c2)C(=O)N[C@@H](Cc2c[nH]c3ccccc23)C(=O)N[C@@H](CC(=O)O)C1=O [compound 2214] ({CH2CO}-[2Nal]WD[NHexGly]Y[Nle]NR[NMeNle][Ahp(2)]PVDC[AEEA][γGlu][AEEA][Aun]-OH; thioether N-14) |  | 32.7 |
| CCCCCCN1CC(=O)N[C@@H](Cc2ccc(O)cc2)C(=O)N[C@@H](CCCCC)C(=O)NCC(=O)N[C@@H](CCCNC(=N)N)C(=O)N[C@@H](CC(C)C)C(=O)N[C@@H](CCCCC)C(=O)N2CCC[C@H]2C(=O)N[C@@H](C(C)C)C(=O)N[C@@H](CO)C(=O)N[C@H](C(=O)NCCOCCOCC(=O)N[C@@H](CCC(=O)NCCOCCOCC(=O)NCCCCCCCCCCC(=O)O)C(=O)O)CSCC(=O)N[C@@H](Cc2ccccc2)C(=O)N[C@@H](Cc2ccc(O)cc2)C(=O)N[C@@H](CC(=O)O)C1=O [compound 2215] ({CH2CO}-FYD[NHexGly]Y[Ahp(2)]GRL[Ahp(2)]PVSC[AEEA][γGlu][AEEA][Aun]-OH; thioether N-14) |  | 28.3 |
| CCCCCCN1CC(=O)N[C@@H](Cc2ccc(O)cc2)C(=O)N[C@@H](CCCC)C(=O)NCC(=O)N[C@@H](CCCNC(=N)N)C(=O)N[C@@H](CC(C)C)C(=O)N[C@@H](CCCCC)C(=O)N2CCC[C@H]2C(=O)N[C@@H](C(C)C)C(=O)N[C@@H](CC(=O)O)C(=O)N[C@H](C(=O)NCCOCCOCC(=O)N[C@@H](CCC(=O)NCCOCCOCC(=O)NCCCCCCCCCCC(=O)O)C(=O)O)CSCC(=O)N[C@@H](Cc2cccc(C)c2)C(=O)N[C@@H](Cc2ccc(O)cc2)C(=O)N[C@@H](CC(=O)O)C1=O [compound 2216] ({CH2CO}-[Phe(3-Me)]YD[NHexGly]Y[Nle]GRL[Ahp(2)]PVDC[AEEA][γGlu][AEEA][Aun]-OH; thioether N-14) |  | 24.3 |
| CCCCCCN1CC(=O)N[C@@H](Cc2ccc(O)cc2)C(=O)N[C@@H](CC(C)C)C(=O)N[C@@H](CC(N)=O)C(=O)N[C@@H](CCCNC(=N)N)C(=O)N[C@@H](CC(C)C)C(=O)N[C@@H](CCCCC)C(=O)N2CCC[C@H]2C(=O)N[C@@H](C(C)C)C(=O)N[C@@H](C(C)C)C(=O)N[C@H](C(=O)NCCOCCOCC(=O)N[C@@H](CCC(=O)NCCOCCOCC(=O)NCCCCCCCCCCC(=O)O)C(=O)O)CSCC(=O)N[C@@H](Cc2ccccc2)C(=O)N[C@@H](Cc2ccc(O)cc2)C(=O)N[C@@H](CC(=O)O)C1=O [compound 2217] ({CH2CO}-FYD[NHexGly]YLNRL[Ahp(2)]PVVC[AEEA][γGlu][AEEA][Aun]-OH; thioether N-14) |  | 13.1 |
| CCCCCCN1CC(=O)N[C@@H](Cc2ccc(O)cc2)C(=O)N[C@@H](CCCC)C(=O)N[C@@H](CC(N)=O)C(=O)N[C@@H](CCCNC(=N)N)C(=O)N(C)[C@@H](CCCC)C(=O)N[C@@H](CCCCC)C(=O)N2CCC[C@H]2C(=O)N[C@@H](C(C)C)C(=O)N[C@@H](CC(=O)O)C(=O)N[C@H](C(=O)NCCOCCOCC(=O)N[C@@H](CCC(=O)NCCOCCOCC(=O)NCCCCCCCCCCC(=O)O)C(=O)O)CSCC(=O)N[C@@H](Cc2ccccc2)C(=O)N[C@@H](Cc2c[nH]c3ccccc23)C(=O)N[C@@H](CC(=O)O)C1=O [compound 2218] ({CH2CO}-FWD[NHexGly]Y[Nle]NR[NMeNle][Ahp(2)]PVDC[AEEA][γGlu][AEEA][Aun]-OH; thioether N-14) |  | 11.5 |
